This note sets out measurements from patent US7629347B2, “Protein tyrosine kinase inhibitors” (Critical Outcome Technologies, Inc., priority 2002, dated 2009).

One may read the GI50 as the concentration giving 50% growth inhibition.

Where a name gives a salt, the structure may show the parent alone. Read-outs that look alike come from different tables or passages of the source. Where only a bound is given, the exact number is not on record here.

One data set concerns Leukemia Cell Line P388. Briefly: in vitro test on cell line P388. The class given is cell-based, murine. The following applies: Mus musculus. The protocol:
(§1) The COTI-001 compound was tested in vitro on a variety of cell lines comparing its effect to a known protein tyrosine kinase inhibitor used in the treatment of certain cancers.

Data set [1] relates to mice. Briefly: in vivo toxicity study in mice.
Protocol: (§2) Five groups of mice (3 mice per group) were administered a 50 mg/kg dosage of Formula II.
A further data set relates to Leukemia Cell Line K562. Briefly: in vitro test on cell line K562. The class given is cell-based. The following applies: Homo sapiens. The protocol: as §1
Data set [2] concerns Breast Cancer Cell Line MCF7. The experiment in a line: in vitro test on cell line MCF7. As to conditions: Homo sapiens, MCF7, read-out: Actual −Log(GI50) (converted). The class given is cell-based. The protocol:
as §1

For data set [3], the system named is mice. The following applies: mouse, in vivo, 50 mg/kg.
Protocol: as §2

On to `CC1CN=C(c2ccc(NC(=O)c3ccc(C(=O)Nc4ccc(C5=NCC(C)CN5)cc4)nc3)cc2)NC1` (centres unmarked) [Formula II, N,N′-Bis[4-(1,4,5,6-tetrahydro-5-methyl-2-pyrimidinyl)phenyl]-2,5-pyridinedicarboxamide dihydrochloride], for which the GI50 in the data set with Leukemia Cell Line P388 (P388, read-out: Actual −Log(GI50) (converted)) was 1000 nM; in the data set on Leukemia Cell Line K562 (K562, read-out: Actual −Log(GI50) (converted)), 20000 nM; in data set [2] it was 20000 nM. In the data set on mice [1], this molecule had a tolerated dosage not above 25 mg/kg. In the data set with mice [1] (50 mg/kg dosage), the tolerability of dosage entry is “not tolerated”.

For `Cc1ccc(NC(=O)c2ccc(CN3CCN(C)CC3)cc2)cc1Nc1nccc(-c2cccnc2)n1` [Gleevec ™, reference compound], the GI50 with Leukemia Cell Line P388 (Leukemia Cell Line P388, in vitro result, read-out: Actual −Log(GI50) (converted)) is 2000 nM; in the data set with Leukemia Cell Line K562 (Leukemia Cell Line K562, in vitro result, read-out: Actual −Log(GI50) (converted)), 1000 nM. Besides, in the data set on mice [3], the tolerability of dosage result is “able to tolerate this dosage amount”.
